“Also recorded” adds a separate entry of the source. Read-outs that look alike come from different tables or passages of the source.
What was measured:
Tet(55) [1] = target: T1, Tet(55) (Unknown prokaryotic organism, UniProt A0A0H4TXY1); test: biochemical
Tet(56) [2] = target: T2, Tet(56) (Legionella longbeachae serogroup 1, UniProt D3HKY4); test: biochemical
Tet(55) [3] = target: T1, Tet(55); format: biochemical; details: 1 mM anhydrotetracycline, 0.1 mM tetracycline
Tet(X) [4] = target: T3, Tet(X) (Bacteroides thetaiotaomicron, UniProt Q93L51); details: by Tet(X); cited from earlier work
Tet(51) = format: biochemical; details: 1 mM anhydrotetracycline, 0.1 mM tetracycline
Tet(55) [5] = target: T1, Tet(55); test: biochemical; remark: listed apart in the source
Tet(50) [6] = target: T4, Tet(50) (Unknown prokaryotic organism, UniProt A0A059WYP6); format: biochemical; details: 1 mM anhydrotetracycline, 0.1 mM tetracycline
Tet(56) [7] = target: T2, Tet(56); format: biochemical, L. longbeachae; details: 1 mM anhydrotetracycline, 0.1 mM tetracycline
Tet(50) [8] = target: T4, Tet(50); test: biochemical
L. longbeacheae = format: cell-based
Tet(47-56) = details: by Tet(47-56); cited from earlier work
Tet(X) [9] = target: T3, Tet(X); format: biochemical; details: 1 mM anhydrotetracycline, 0.1 mM tetracycline

CN(C)[C@@H]1C(O)=C(C(N)=O)C(=O)[C@@]2(O)C(=O)c3c(cc4c(Cl)ccc(O)c4c3O)C[C@@H]12 [anhydrodemeclocycline, (4S,4aS,12aS)-7-chloro-4-(dimethylamino)-3,10,11,12a-tetrahydroxy-1,12-dioxo-1,4,4a,5,12,12a-hexahydrotetracene-2-carboxamide]
IC50 (Tet(55) [1]): 9 ± 1 µM

Cc1c2c(c(O)c3c(O)ccc(Cl)c13)C(=O)[C@]1(O)C(=O)C(C(N)=O)=C(O)[C@@H](N(C)C)[C@@H]1C2 [anhydrochlortetracycline, (4S,4aS,12aS)-7-chloro-4-(dimethylamino)-3,10,11,12a-tetrahydroxy-6-methyl-1,12-dioxo-1,4,4a,5,12,12a-hexahydrotetracene-2-carboxamide]
IC50 (Tet(55) [1]): 9 ± 1 µM

Cc1c2c(c(O)c3c(O)cccc13)C(=O)[C@]1(O)C(=O)C(C(N)=O)=C(O)[C@@H](N(C)C)[C@@H]1C2 [anhydrotetracycline]
IC50 (Tet(56) [2]): 37.1 ± 1.1 µM | effect on enzymatic tetracycline degradation (HPLC) (Tet(55) [3]): sufficient to decrease or prevent tetracycline degradation | enzymatic degradation (Tet(X) [4]): slowly degraded | effect on enzymatic tetracycline degradation (HPLC) (Tet(51)): sufficient to decrease or prevent tetracycline degradation | IC50 (Tet(55) [5]): 25.6 ± 1.2 µM | effect on enzymatic tetracycline degradation (HPLC) (Tet(50) [6]): sufficient to decrease or prevent tetracycline degradation | effect on enzymatic tetracycline degradation (HPLC) (Tet(56) [7]): tetracycline is not degraded | IC50 (Tet(50) [8]): 83.2 ± 1.2 µM | synergy with tetracycline (L. longbeacheae): synergy was not observed | enzymatic degradation (Tet(47-56)): not degraded | effect on enzymatic tetracycline degradation (HPLC) (Tet(X) [9]): able to prevent tetracycline degradation; also recorded: sufficient to decrease or prevent tetracycline degradation

Cc1c2c(c(O)c3c(O)ccc(I)c13)C(=O)[C@]1(O)C(=O)C(C(N)=O)=C(O)[C@@H](N(C)C)[C@@H]1C2 [anhydroiodotetracycline, (4S,4aS,12aS)-4-(dimethylamino)-3,10,11,12a-tetrahydroxy-7-iodo-6-methyl-1,12-dioxo-1,4,4a,5,12,12a-hexahydrotetracene-2-carboxamide]
IC50 (Tet(55) [1]): 6 ± 1 µM

Source: patent publication US10273468B2 (priority 2016, dated 2019)
